Results reported in patent US5650415A, “Quinoline compounds” (Sugen, Inc., priority 1995, dated 1997).

Test system: HER2
Test: HER2 whole cell kinase ELISA (first HER2 column of Table 1)
Assay type: cell-based
Conditions: cell line not given
Description: The following examples illustrates the ability of the exemplary compounds to inhibit receptor tyrosine kinases, such as HER2 and/or EGFR. The following target cells were used for cellular kinase assays: NIH3T3 clone C7 (Honegger et al., supra) engineered to over-express human EGF receptor; NIH3T3 cells engineered to over-express a chimeric receptor containing the EGFR extracellular domain and the HER2 intracellular kinase domain; the human mammary carcinoma line BT474 (ATCC HTB2) expressing HER2; and the human glioblastoma line U1242 that expresses PDGFR-beta. Growth assays were carried out using human mammary epithelial SKBR3 (ATCC HTB30) cells (SKBR3 cells over-express HER2), SKOV3 (AT(D(D HTB77) human ovarian cancer cell line (SKOV3 cells also over-express HER2), A431 cells (A431 cells over-express EGFR) MCF7 human breast carcinoma cells, MCF7 cells overexpressing the HER2 kinase (MCF7-HER2), NIH3T3 cells, and NIH3T3 cells overexpressing the HER2 kinase (3T3-HER2.
EGFR-HER2 Chimeric Recetor
HER2 kinase activity (EGFR-3T3) in whole cells was measured as described below:
The materials and regeants are identical to these used in example 1, the EGFR whole cell kinase assay.
A. Coat ELISA plates (Corning, 96 well, Cat. #25805-96) with 05-101 antibody at 0.5 µg per well in PBS, 100 μl final volume/well, and store overnight at 4.sunburst. C. Coated plates are good for up to 10 days when stored at 4° C.
B. On day of use, remove coating buffer and replace with 100 μl blocking buffer (5% Carnation Instant Non-Fat Dry Milk in PBS). Incubate the plate, shaking, at room temperature (about 23.sunburst. C. to 25.sunburst. C.) for 30 minutes. Just prior to use, remove blocking buffer and wash plate 4 times with TBST buffer.
A. An NIH3T3 cell line overexpressing a chimeric receptor containing the EGFR extracellular domain and extracellular HER2 kinase domain can be used for this assay.
B. Choose dishes having 80-90% confluence for the experiment. Trypsinize cells and stop reaction by adding 10% fetal bovine serum. Suspend cells in DMEM medium (10% CS DMEM medium) and centrifuge once at 1500 rpm, at room temperature for 5 minutes.
C. Resuspend cells in seeding medium (DMEM, 0.5% bovine serum), and count the cells using trypan blue. Viability above 90% is acceptable. Seed cells in DMEM medium (0.5% bovine serum) at a density of 10,000 cells per well, 100 μl per well, in a 96 well microtiter plate. Incubate seeded cells in 5% CO2 at 37.sunburst. C. for about 40 hours.
A. Check seeded cells for contamination using an inverted microscope. Dilute drug stock (10 mg/ml in DMSO) 1:10 in DMEM medium, then transfer 5 l to a […] well for a final drug dilution of 1:200 and a final DMSO concentration of 1%. Control wells receive DMSO alone. Incubate in 5% CO2 at 37° C. for two hours.
B. Prepare EGF ligand: dilute stock EGF in DMEM so that upon transfer of 10 μl dilute EGF (1:12 dilution), 100 nM final concentration is attained.
D. After 120 minutes incubation with drug, add prepared […] ligand to cells, 10 μl per well, to a final concentration of 100 nM. Control wells receive DMEM alone. Incubate, shaking, at room temperature, for 5 minutes.
E. Remove drug, EGF, and DMEM. Wash cells twice with PBS. Transfer HNTG* to cells, 100 μl per well. Place on ice for 5 minutes. Meanwhile, remove blocking buffer from other ELISA plate and wash with TBST as described above.
F. With a pipette tip securely fitted to a micropipettor, scrape cells from plate and homogenize cell material by repeatedly aspirating and dispensing the HNTG* lysis buffer. Transfer lysate to a coated, blocked, and washed ELISA plate. Incubate shaking at room temperature for one hour.
G. Remove lysate and wash 4 times with TBST. Transfer freshly diluted anti-Ptyr antibody to ELISA plate at 100 μl per well. Incubate shaking at room temperature for 30 minutes in the presence of the anti-Ptyr antiserum (1:3000 dilution in TBST).
H. Remove the anti-Ptyr antibody and wash 4 times with TBST. […]

| SMILES | IC50 [µM] |
| --- | --- |
| CCOC(=O)c1cnc2ccc(C(F)(F)F)cc2c1Nc1ccc(Br)cc1 [Compound A727, 4-(4-Bromophenylamino)-3-ethoxycarbonyl-6-trifluoromethylquinoline] | > 100 |
| CCOC(=O)c1cnc2ccc(C(F)(F)F)cc2c1Nc1ccc(OC)c(OC)c1 [Compound A726, 3-Ethoxycarbonyl-4-(3,4-dimethoxyphenylamino)-6-trifluoromethylquinoline] | > 100 |
| CCOC(=O)c1cnc2ccc(C(F)(F)F)cc2c1Nc1cccc(Cl)c1 [Compound A728, 4-(3-Chlorophenylamino)-3-ethoxycarbonyl-6-trifluoromethylquinoline] | > 100 |
| CCOC(=O)c1cnc2ccc(C(F)(F)F)cc2c1Nc1ccccc1C(F)(F)F [Compound A720, 3-Ethoxycarbonyl-4-(2-trifluoromethylphenylamino)-6-trifluoromethylquinoline] | > 100 |
| CCOC(=O)c1cnc2c(F)cc(F)cc2c1Sc1ccc(Cl)cc1 [Compound A730, 4-(4-Chlorophenylmercapto)-6,8-difluoro-3-ethoxycarbonylquinoline] | > 100 |
| CCOC(=O)c1cnc2cc(Cl)c(F)cc2c1Sc1ccc(Cl)cc1 [Compound A731, 7-Chloro-4-(4-chlorophenylmercapto)-6-fluoro-3-ethoxycarbonylquinoline] | > 100 |

Results, then the compound that gave them:

| IC50 [µM] | SMILES |
| --- | --- |
| > 100 | CCOC(=O)c1cnc2ccc(C(F)(F)F)cc2c1NCc1cccc(C(F)(F)F)c1 [Compound A718, 3-Ethoxycarbonyl-4-(3-trifluoromethylbenzylamino)-6-trifluoromethylquinoline] |
| 50 | CCOC(=O)c1cnc2c(F)ccc(F)c2c1Sc1ccc(Cl)cc1 [Compound A732, 4-(4-Chlorophenylmercapto)-5,8-difluoro-3-ethoxycarbonylquinoline] |
| > 100 | CCOC(=O)c1cnc2ccc(C(F)(F)F)cc2c1NCc1ccccc1C(F)(F)F [Compound A717, 3-Ethoxycarbonyl-4-(2-trifluoromethylbenzylamino)-6-trifluoromethylquinoline] |
| > 100 | CCOC(=O)c1cnc2ccc(C(F)(F)F)cc2c1Nc1ccc(C#N)cc1 [Compound A725, 4-(4-Cyanophenylamino)-3-ethoxycarbonyl-6-trifluoromethylquinoline] |
| > 100 | CCOC(=O)c1cnc2ccc(C(F)(F)F)cc2c1Nc1ccccc1C#N [Compound A723, 4-(2-Cyanophenylamino)-3-ethoxycarbonyl-6-trifluoromethylquinoline] |
| > 100 | CCOC(=O)c1cnc2ccc(C(F)(F)F)cc2c1Nc1ccc(Cl)cc1 [Compound A729, 4-(4-Chlorophenylamino)-3-ethoxycarbonyl-6-trifluoromethylquinoline] |
| 7.9 | CCOC(=O)c1cnc2c(F)ccc(F)c2c1Sc1cccc(C(F)(F)F)c1 [Compound A713, 3-Ethoxycarbonyl-5,8-difluoro-4-(3-trifluoromethylphenylmercapto)quinoline] |
| > 100 | CCOC(=O)c1cnc2ccc(C(F)(F)F)cc2c1NCc1ccc(C(F)(F)F)cc1 [Compound A719, 3-Ethoxycarbonyl-4-(4-trifluoromethylbenzylamino)-6-trifluoromethylquinoline] |
